Test system: MDA-MB-436
Test: normalised viability (% of control), CellTiter-Blue; higher = more viable cells (about 100 = DMSO control)
Settings: 10 nM; incubation time: 72 h
How it was run: (§1)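 Vehicle (100) and a positive kill control (0) anchored the normalisation of each plate, and Z'-factor was used for quality control. Breast cancer cell lines in 20 µl suspension were incubated 72 h over compound in 5 µl medium in 384-well plates, followed by CellTiter-Blue at 560/590 nm. The value is normalised viability at a single listed concentration of the series.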

| Compound | normalised viability [%] |
| --- | --- |
| C[C@H]1C[C@@H]2[C@H]([C@@H](O)C[C@@]3(C)[C@H]2CC[C@]3(O)C(=O)CO)[C@@]2(C)C=CC(=O)C=C12 [Methylprednisolone] | 108 |
| CCc1cncnc1N1CCN(Cc2nc3ccc(C(F)(F)F)cc3[nH]2)CC1 | 107 |
| Oc1ncc(N(CCCl)CCCl)c(O)n1 [Uracil mustard] | 103 |
| CC1=C(/C=C/C(C)=C/C=C/C(C)=C/C(=O)O)C(C)(C)CCC1 [Tretinoin] | 97.9 |

Same assay, conditions: 100 nM; incubation time: 72 h

| Compound | normalised viability [%] |
| --- | --- |
| COc1cc2c(Oc3ccc4[nH]c(C)cc4c3F)ncnc2cc1OCCCN1CCCC1 [Cediranib] | 92 |
| C=CC(=O)N1CCC[C@@H](n2nc(-c3ccc(Oc4ccccc4)cc3)c3c(N)ncnc32)C1 | 85.8 |
| Cc1cnc(NC(=O)Nc2cc(Br)c(C)cc2OC[C@@H]2CNCCO2)cn1 | 83.4 |

Same assay, conditions: 1000 nM; incubation time: 72 h

| Compound | normalised viability [%] |
| --- | --- |
| Nc1nc(F)nc2c1ncn2[C@@H]1O[C@H](CO)[C@@H](O)[C@@H]1O [Fludarabine] | 81.2 |
| O=C(O)C1(C(=O)O)CCC1.[NH2-].[NH2-].[Pt+2] [Carboplatin] | 95.9 |
| N#Cc1ccc(C(c2ccc(C#N)cc2)n2cncn2)cc1 [Letrozole] | 96.1 |
| C1CN1c1nc(N2CC2)nc(N2CC2)n1 [Triethylenemelamine] | 96.5 |
| CCCS(=O)(=O)Nc1ccc(F)c(C(=O)c2c[nH]c3ncc(-c4ccc(Cl)cc4)cc23)c1F [Vemurafenib] | 97.3 |
| O=C(O)C(=O)O.[NH-][C@@H]1CCCC[C@H]1[NH-].[Pt+2] [Oxaliplatin] | 88.6 |
| Cc1ccc(-c2cc(C(F)(F)F)nn2-c2ccc(S(N)(=O)=O)cc2)cc1 [Celecoxib] | 77.8 |
| NCCCNCCSP(=O)(O)O [Amifostine] | 91.8 |
| COc1cc2c(Oc3ccc4[nH]c(C)cc4c3F)ncnc2cc1OCCCN1CCCC1 [Cediranib] | 91.8 |
| C[C@H]1C[C@@H]2[C@H]([C@@H](O)C[C@@]3(C)[C@H]2CC[C@]3(O)C(=O)CO)[C@@]2(C)C=CC(=O)C=C12 [Methylprednisolone] | 92.2 |
| CCc1cncnc1N1CCN(Cc2nc3ccc(C(F)(F)F)cc3[nH]2)CC1 | 106 |
| C=CC(=O)N1CCC[C@@H](n2nc(-c3ccc(Oc4ccccc4)cc3)c3c(N)ncnc32)C1 | 94.8 |
| Oc1ncc(N(CCCl)CCCl)c(O)n1 [Uracil mustard] | 76.6 |
| Cc1cnc(NC(=O)Nc2cc(Br)c(C)cc2OC[C@@H]2CNCCO2)cn1 | 67.8 |
| CC1=C(/C=C/C(C)=C/C=C/C(C)=C/C(=O)O)C(C)(C)CCC1 [Tretinoin] | 81.6 |

Same assay, conditions: 10000 nM; incubation time: 72 h

| Compound | normalised viability [%] |
| --- | --- |
| Nc1nc(F)nc2c1ncn2[C@@H]1O[C@H](CO)[C@@H](O)[C@@H]1O [Fludarabine] | 78.4 |
| O=C(O)C1(C(=O)O)CCC1.[NH2-].[NH2-].[Pt+2] [Carboplatin] | 82.2 |
| N#Cc1ccc(C(c2ccc(C#N)cc2)n2cncn2)cc1 [Letrozole] | 105 |
| C1CN1c1nc(N2CC2)nc(N2CC2)n1 [Triethylenemelamine] | 102 |
| CCCS(=O)(=O)Nc1ccc(F)c(C(=O)c2c[nH]c3ncc(-c4ccc(Cl)cc4)cc23)c1F [Vemurafenib] | 78.1 |
| O=C(O)C(=O)O.[NH-][C@@H]1CCCC[C@H]1[NH-].[Pt+2] [Oxaliplatin] | 56.5 |
| Cc1ccc(-c2cc(C(F)(F)F)nn2-c2ccc(S(N)(=O)=O)cc2)cc1 [Celecoxib] | 80.1 |
| NCCCNCCSP(=O)(O)O [Amifostine] | 86.2 |
| C[C@H]1C[C@@H]2[C@H]([C@@H](O)C[C@@]3(C)[C@H]2CC[C@]3(O)C(=O)CO)[C@@]2(C)C=CC(=O)C=C12 [Methylprednisolone] | 108 |
| CCc1cncnc1N1CCN(Cc2nc3ccc(C(F)(F)F)cc3[nH]2)CC1 | 91.7 |
| Oc1ncc(N(CCCl)CCCl)c(O)n1 [Uracil mustard] | 97.8 |
| CC1=C(/C=C/C(C)=C/C=C/C(C)=C/C(=O)O)C(C)(C)CCC1 [Tretinoin] | 95.5 |

Test system: Hs578T
Test: as above
Settings: 1 nM; incubation time: 72 h
How it was run: as §1

| Compound | normalised viability [%] |
| --- | --- |
| COc1cc2c(Oc3ccc4[nH]c(C)cc4c3F)ncnc2cc1OCCCN1CCCC1 [Cediranib] | 110 |
| C=CC(=O)N1CCC[C@@H](n2nc(-c3ccc(Oc4ccccc4)cc3)c3c(N)ncnc32)C1 | 123 |
| Cc1cnc(NC(=O)Nc2cc(Br)c(C)cc2OC[C@@H]2CNCCO2)cn1 | 92.6 |

Same assay, conditions: 10 nM; incubation time: 72 h

| Compound | normalised viability [%] |
| --- | --- |
| Nc1nc(F)nc2c1ncn2[C@@H]1O[C@H](CO)[C@@H](O)[C@@H]1O [Fludarabine] | 112 |
| O=C(O)C1(C(=O)O)CCC1.[NH2-].[NH2-].[Pt+2] [Carboplatin] | 105 |
| N#Cc1ccc(C(c2ccc(C#N)cc2)n2cncn2)cc1 [Letrozole] | 91.8 |
| C1CN1c1nc(N2CC2)nc(N2CC2)n1 [Triethylenemelamine] | 145 |
| CCCS(=O)(=O)Nc1ccc(F)c(C(=O)c2c[nH]c3ncc(-c4ccc(Cl)cc4)cc23)c1F [Vemurafenib] | 112 |
| O=C(O)C(=O)O.[NH-][C@@H]1CCCC[C@H]1[NH-].[Pt+2] [Oxaliplatin] | 106 |
| Cc1ccc(-c2cc(C(F)(F)F)nn2-c2ccc(S(N)(=O)=O)cc2)cc1 [Celecoxib] | 113 |
| NCCCNCCSP(=O)(O)O [Amifostine] | 101 |
| C[C@H]1C[C@@H]2[C@H]([C@@H](O)C[C@@]3(C)[C@H]2CC[C@]3(O)C(=O)CO)[C@@]2(C)C=CC(=O)C=C12 [Methylprednisolone] | 102 |
| CCc1cncnc1N1CCN(Cc2nc3ccc(C(F)(F)F)cc3[nH]2)CC1 | 95.4 |
| Oc1ncc(N(CCCl)CCCl)c(O)n1 [Uracil mustard] | 106 |
| CC1=C(/C=C/C(C)=C/C=C/C(C)=C/C(=O)O)C(C)(C)CCC1 [Tretinoin] | 123 |

Same assay, conditions: 100 nM; incubation time: 72 h

| Compound | normalised viability [%] |
| --- | --- |
| COc1cc2c(Oc3ccc4[nH]c(C)cc4c3F)ncnc2cc1OCCCN1CCCC1 [Cediranib] | 106 |
| C=CC(=O)N1CCC[C@@H](n2nc(-c3ccc(Oc4ccccc4)cc3)c3c(N)ncnc32)C1 | 123 |
| Cc1cnc(NC(=O)Nc2cc(Br)c(C)cc2OC[C@@H]2CNCCO2)cn1 | 102 |

Same assay, conditions: 1000 nM; incubation time: 72 h

| Compound | normalised viability [%] |
| --- | --- |
| Nc1nc(F)nc2c1ncn2[C@@H]1O[C@H](CO)[C@@H](O)[C@@H]1O [Fludarabine] | 99.2 |
| O=C(O)C1(C(=O)O)CCC1.[NH2-].[NH2-].[Pt+2] [Carboplatin] | 94.1 |
| N#Cc1ccc(C(c2ccc(C#N)cc2)n2cncn2)cc1 [Letrozole] | 91 |
| C1CN1c1nc(N2CC2)nc(N2CC2)n1 [Triethylenemelamine] | 117 |

— the supplement of paper PMC4862054
